Experimental data: ChEMBL document CHEMBL3507680, “University of Dundee, Gates Library screen for HepG2 cell viability”

Assay: Human HepG2 cell viability assay in 384 well format
Assay type: toxicity, cell-based
Set-up: dose 125 nL, time 70.5 hour; concentration not given beside the values
Conditions: HepG2 cells, read-out: Inhibition

Going from CC(C)(C)CC(NC(=O)N1CCS(=O)(=O)CC1)C(F)(F)F (centres undefined) to CC(=O)N1CCC(NC(=O)N(C)Cc2c(C)noc2C)CC1, the cytotoxicity at 70.5 h falls from -4.28% to -8.21%.

Compared with Cc1nnsc1CNC(=O)c1ccc2c(c1)nc(N1CCOCC1)n2C, Cc1ccc(CCC(=O)N2CCOCC2c2ncon2)c(C)c1 (centres undefined) is higher in cytotoxicity at 70.5 h: -12.9% for the first, 13.3% for the second.

First: CC(C)N[C@@H]1CC[C@@H]1NC(=O)c1ccccc1OC(F)(F)C(F)F
Second: CCN(C(=O)CN1CCC(c2cc3ccccc3[nH]2)CC1)C1CC1
The cytotoxicity at 70.5 h of the first is higher: 14.2% for the first, 4.18% for the second.

Compared with CCC1=N[C@@]2(CC[C@@H]3CN(Cc4ccccc4F)C[C@@H]32)C(=O)N1CC, Cc1nc(C2CCCN2CCC(=O)N2CCc3ccccc32)no1 (centres undefined) is higher in cytotoxicity at 70.5 h: -6.42% for the first, 4.14% for the second.

Going from NCc1cc(NCC(c2ccccn2)N2CCOCC2)ncn1 (centres undefined) to CN1CCN(C(CNC(=O)CCn2cccn2)c2cccs2)CC1 (centres undefined), the cytotoxicity at 70.5 h rises from -6.83% to -4.76%.

First: CSc1cccc(NC(=O)Nc2c(O)oc3ccccc3c2=O)c1
Second: O=c1c2ccccc2nc2n1C(CSc1ccc(F)cc1)CN2 (centres undefined)
The cytotoxicity at 70.5 h of the first is lower: -11.5% for the first, 28.4% for the second.

First: CCS(=O)(=O)N1CCc2nnc(CN(C)C(C)C)n2CC1
Second: CCc1nc2n(n1)CC(NCc1nnc(C(C)C)o1)CC2 (centres undefined)
The cytotoxicity at 70.5 h of the first is higher: 19.5% for the first, 19.3% for the second.

Going from CC(=O)c1c(C)nn(S(=O)(=O)c2ccc(Cl)cc2)c1C to Cc1ccc(S(=O)(=O)n2ccc(C(=O)NCC(F)(F)F)c2)cc1, the cytotoxicity at 70.5 h falls from 3.92% to 1.3%.

Going from CC(=O)NCCC(=O)NCCCOc1c(C)cccc1C to COCC(=O)N1CCCC1c1cccc(C)c1C (centres undefined), the cytotoxicity at 70.5 h rises from -6.31% to 4.58%.

Compared with CC(C)CCn1ccc(NC(=O)N2CCCC2CN2CCOCC2)n1 (centres undefined), CC(C)N1CCO[C@H]2CN(C(=O)c3ccncc3F)C[C@H]21 is higher in cytotoxicity at 70.5 h: -7.64% for the first, -4.09% for the second.

First: Cc1ccc(NC2CCN(C(=O)CCc3ccco3)CC2)nn1
Second: CC(Cc1ccco1)NC(=O)C1=NN(c2ccccc2)C(=O)CC1 (centres undefined)
The cytotoxicity at 70.5 h of the first is lower: -9.84% for the first, 16.9% for the second.

Going from CC(C)[C@H]1CN(S(=O)(=O)c2cccnc2)C[C@@H]1N to CS(=O)(=O)N1CCCC(C(=O)Nc2cnn(Cc3ccc(F)cc3)c2)C1 (centres undefined), the cytotoxicity at 70.5 h falls from 0.829% to 0.36%.

Compared with NC(=O)c1cnc(-c2ccccc2)nc1CCNC(=O)CN1CCCC1, O=C(CS(=O)(=O)Cc1csc(-c2ccc(F)cc2)n1)NCC1CC1 is lower in cytotoxicity at 70.5 h: 9.13% for the first, -6.8% for the second.

Compared with CC(C)Sc1ccc(C(C)NC(=O)CNS(C)(=O)=O)cc1 (centres undefined), COc1cccc(-n2cc(-c3ccnc(NC(CO)C(C)C)n3)cn2)c1 (centres undefined) is lower in cytotoxicity at 70.5 h: 17% for the first, 13.2% for the second.

Going from c1ccc(CO[C@H]2CN(c3ncccn3)C[C@@]23CCCO3)cc1 to O=C(O)[C@]12CCCN(C3CCOC3)C[C@H]1CN(c1ncccn1)C2 (some centres undefined), the cytotoxicity at 70.5 h rises from -11.5% to -2.93%.

First: COc1ccc(NC(=O)CSc2nc(C)c(C)c(C)c2C#N)cn1
Second: CCOC(=O)c1n[nH]cc1-c1cncn1CCn1nc(C)c(C)c1C
The cytotoxicity at 70.5 h of the first is higher: -2.39% for the first, -6.65% for the second.

Compared with CCOC(=O)c1cnn(-c2cc(Oc3cccc(C)c3)ncn2)c1N, Cc1ccc(CNCc2ccc(-n3nc(C)cc3C)nc2)cc1 is lower in cytotoxicity at 70.5 h: -0.773% for the first, -6.83% for the second.

First: Cc1cccc(OC2CN(C(=O)C3CC(=O)N(C4CC4)C3)C2)c1 (centres undefined)
Second: COc1cccc(/C=C/CCN2CCCN(C(C)=O)CC2)c1
The cytotoxicity at 70.5 h of the first is higher: 4.04% for the first, -6.2% for the second.

Going from COc1ccc(CNC2CCc3ncnn3C2)cc1OCCCC#N (centres undefined) to COc1c(CNC2CCOc3c(F)cccc32)c(C)nn1C (centres undefined), the cytotoxicity at 70.5 h rises from -9.41% to -3.45%.

First: CC1(C)OC(=O)N(CCCOc2ccc(F)cc2)C1=O
Second: CC(CCCC(C)(C)O)Nc1ccc(-c2nccn2C)nn1 (centres undefined)
The cytotoxicity at 70.5 h of the first is lower: -11.6% for the first, 0.443% for the second.

First: Cc1cc(CN2CCC(N(C)Cc3nnc(C4CC4)n3C)C2)on1 (centres undefined)
Second: Cc1nc([C@H]2C[C@@H]3CCN(C(=O)c4ccnnc4)C[C@H]3O2)sc1C
The cytotoxicity at 70.5 h of the first is lower: -2.5% for the first, -0.727% for the second.

Compared with Cc1oc2nc[nH]c(=O)c2c1C(=O)N1CCCC(n2cccn2)C1 (centres undefined), CC(O)CN1CCN(C(=O)c2cccn2Cc2ccccc2)CC1 (centres undefined) is higher in cytotoxicity at 70.5 h: -4.01% for the first, -1.63% for the second.
